Here are results for 18 compounds from PubChem BioAssay (NCI).

Test systems include HCC-2998 colon; LOX IMVI melanoma; NCI-H23 lung; NCI-H460 lung; SF-295 CNS; SK-MEL-2 melanoma; SK-MEL-5 melanoma; SNB-19 CNS; U251 CNS; CCRF-CEM leukemia.
Holding throughout (experiment): growth of human tumour cells (NCI), 48 h

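Protocol summary: plate cells (96-well), add compound at 5 concentrations, incubate 48 h, interpolate endpoints linearly. Here, GI50 denotes the concentration required for 50% inhibition of growth. The concentration for full growth arrest is given as TGI.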 Where only a bound is given, the exact number is not on record here.

As for `O=C1c2ccccc2C(=O)N1c1ccc(Cc2ccc(N3C(=O)c4ccccc4C3=O)cc2)cc1`, the TGI with HCC-2998 colon, in the assay on LOX IMVI melanoma, with NCI-H23 lung, in the assay on NCI-H460 lung, with SF-295 CNS and with SK-MEL-2 melanoma was above 100 µM each time. The TGI in the assay on SK-MEL-5 melanoma, in the assay with SNB-19 CNS and in the assay on U251 CNS was above 100 µM in each case.
As to `CN(c1cccc(C(=O)O)c1)c1cc(O/N=[N+](\[O-])N(C)C)c([N+](=O)[O-])cc1[N+](=O)[O-]`, the GI50 in the assay with LOX IMVI melanoma is 47.6 µM; in the assay with NCI-H23 lung, above 100 µM; with NCI-H460 lung, above 100 µM; in the assay with SF-295 CNS, above 100 µM; with SK-MEL-2 melanoma it was above 100 µM; in the assay on SK-MEL-5 melanoma, above 100 µM. The GI50 in the assay on SNB-19 CNS and with U251 CNS was above 100 µM in each case. For the same compound, the TGI with LOX IMVI melanoma, in the assay with NCI-H23 lung, in the assay on NCI-H460 lung, in the assay on SF-295 CNS, in the assay on SK-MEL-2 melanoma and in the assay on SK-MEL-5 melanoma was above 100 µM in each case. The TGI in the assay on SNB-19 CNS and with U251 CNS was above 100 µM throughout.
Regarding `COC1CCCc2c(OC(C)=O)ccc(OC(C)=O)c21` (stereo not drawn), the TGI with HCC-2998 colon, in the assay on LOX IMVI melanoma, with NCI-H23 lung, in the assay on SK-MEL-2 melanoma, with SK-MEL-5 melanoma and with SNB-19 CNS was above 100 µM each time. The compound further had a TGI in the assay on U251 CNS above 100 µM.
Regarding `O=C(Nc1cc(Cl)c(I)c(Cl)c1)C(F)(F)F`, the TGI is 66.4 µM with CCRF-CEM leukemia; 34.2 µM in the assay on HCC-2998 colon; 70.8 µM with NCI-H23 lung; above 100 µM with NCI-H460 lung; above 100 µM in the assay with SF-295 CNS; 36.1 µM in the assay on SK-MEL-5 melanoma. In addition, the TGI with SNB-19 CNS and in the assay with U251 CNS was above 100 µM each time.
With `N.N.N.N.N#N.N#N.[Cl-].[Os+6]`, the GI50 in the assay on HCC-2998 colon, with LOX IMVI melanoma, with NCI-H23 lung, in the assay with NCI-H460 lung, in the assay with SF-295 CNS and with SK-MEL-2 melanoma was above 100 µM each time. In addition, the GI50 with SK-MEL-5 melanoma, in the assay with SNB-19 CNS and with U251 CNS was above 100 µM each time. Besides, the TGI with HCC-2998 colon, in the assay with LOX IMVI melanoma, with NCI-H23 lung, in the assay on NCI-H460 lung, in the assay on SF-295 CNS and in the assay with SK-MEL-2 melanoma was above 100 µM throughout. In addition, the TGI in the assay with SK-MEL-5 melanoma, in the assay with SNB-19 CNS and in the assay with U251 CNS was above 100 µM in each case.
For the compound `N#CC1=C(N)NC(=O)C(C#N)C12Nc1ccccc1S2` (stereo not drawn), the GI50 in the assay on CCRF-CEM leukemia is above 100 µM; with LOX IMVI melanoma, 80.1 µM; with NCI-H23 lung, 41.2 µM; in the assay with NCI-H460 lung, above 100 µM; in the assay on SF-295 CNS, 50.6 µM; with SK-MEL-2 melanoma it was 40.7 µM. Besides, the results for the GI50 in the assay on SK-MEL-5 melanoma, in the assay with SNB-19 CNS and in the assay on U251 CNS were above 100 µM, 90.5 µM and above 100 µM, respectively. In addition, the TGI in the assay on CCRF-CEM leukemia, in the assay on LOX IMVI melanoma, in the assay with NCI-H23 lung, in the assay with NCI-H460 lung, in the assay on SF-295 CNS and in the assay with SK-MEL-2 melanoma was above 100 µM throughout. The TGI in the assay on SK-MEL-5 melanoma, with SNB-19 CNS and in the assay with U251 CNS was above 100 µM each time.
For the compound `COc1ccc2c(c1OC)C(=O)C2`, the TGI with CCRF-CEM leukemia, in the assay with LOX IMVI melanoma, in the assay with NCI-H23 lung, in the assay on NCI-H460 lung, in the assay on SF-295 CNS and in the assay on SK-MEL-2 melanoma was above 100 µM throughout. Besides, the TGI in the assay on SK-MEL-5 melanoma, in the assay on SNB-19 CNS and in the assay on U251 CNS was above 100 µM throughout.
Regarding `CN(C)CCNC(=O)c1ccc2c(c1)oc1cc3ccccc3c(=O)n12`, the GI50 is 1.91 µM in the assay on LOX IMVI melanoma; 31.8 µM in the assay with NCI-H23 lung; 7.5 µM with NCI-H460 lung; 14.2 µM in the assay on SF-295 CNS; 28.7 µM with SK-MEL-2 melanoma; 23.3 µM with SK-MEL-5 melanoma. Moreover, the GI50 was 25.9 µM with SNB-19 CNS and 15.8 µM in the assay with U251 CNS. Further, the TGI in the assay on LOX IMVI melanoma was 11 µM; in the assay with NCI-H23 lung it was above 100 µM; in the assay on NCI-H460 lung it was 25.7 µM; in the assay on SF-295 CNS it was 32.5 µM; with SK-MEL-2 melanoma, 50.5 µM; with SK-MEL-5 melanoma, 39.9 µM. Moreover, the TGI in the assay with SNB-19 CNS was determined as 48.7 µM; in the assay on U251 CNS, 30.6 µM.
Consider `COc1ccc(-c2nc(NC(=O)CS(=O)(=O)c3ccc(F)cc3)sc2C)cc1`, for which the GI50 is 26 µM in the assay on HCC-2998 colon; 19.2 µM in the assay with LOX IMVI melanoma; 27.9 µM in the assay on NCI-H23 lung; 20.1 µM in the assay on NCI-H460 lung; 18.8 µM in the assay on SF-295 CNS; 15.2 µM with SK-MEL-2 melanoma. The GI50 is 12.8 µM in the assay with SK-MEL-5 melanoma, 33.4 µM in the assay on SNB-19 CNS and 19.2 µM with U251 CNS. The TGI with HCC-2998 colon is 94.7 µM; in the assay on LOX IMVI melanoma, 42.6 µM; with NCI-H23 lung, above 100 µM; in the assay with NCI-H460 lung, 51.5 µM; in the assay with SF-295 CNS it was 50.1 µM; in the assay with SK-MEL-2 melanoma, 34.1 µM. Moreover, the TGI in the assay on SK-MEL-5 melanoma is 25.9 µM; with SNB-19 CNS it was above 100 µM; with U251 CNS it was 51.3 µM.
On to `CN(C)CCCNc1ccnc2c([N+](=O)[O-])cccc12`, for which the TGI in the assay on CCRF-CEM leukemia stood at 96 µM; with HCC-2998 colon it was 27.1 µM; with LOX IMVI melanoma, 39 µM; in the assay with NCI-H23 lung, 31.3 µM; with NCI-H460 lung it was 39.2 µM; in the assay with SF-295 CNS it was 42.2 µM. Moreover, the TGI is 54.5 µM in the assay on SNB-19 CNS and above 100 µM in the assay on U251 CNS.
As to `COc1ccc(C2=C(OC(C)=O)c3cccn3-c3ccc(Cl)cc3S2)cc1`, the TGI with CCRF-CEM leukemia, with HCC-2998 colon, in the assay with LOX IMVI melanoma, with NCI-H23 lung, with SF-295 CNS and with SK-MEL-5 melanoma was above 10 µM throughout.
Take `CC(C)(C)OC(=O)N(CCCCN(CCCn1c2c(c3ccccc3c1=O)C(=O)c1ccccc1-2)C(=O)OC(C)(C)C)CCCn1c2c(c3ccccc3c1=O)C(=O)c1ccccc1-2`: the GI50 is 10.9 µM in the assay on HCC-2998 colon; 18.6 µM in the assay on LOX IMVI melanoma; 25 µM in the assay with NCI-H23 lung; 6.32 µM in the assay on NCI-H460 lung; 14 µM in the assay with SF-295 CNS; 65.1 µM in the assay with SK-MEL-2 melanoma. Further, the GI50 in the assay with SK-MEL-5 melanoma is 48.5 µM; in the assay on SNB-19 CNS, 72 µM; in the assay on U251 CNS, 27.2 µM. Besides, the TGI was 41 µM in the assay with HCC-2998 colon; above 100 µM with LOX IMVI melanoma; above 100 µM in the assay with NCI-H23 lung; 19.3 µM in the assay with NCI-H460 lung; above 100 µM in the assay on SF-295 CNS; above 100 µM in the assay with SK-MEL-2 melanoma. Moreover, the TGI in the assay on SK-MEL-5 melanoma, in the assay with SNB-19 CNS and with U251 CNS was above 100 µM throughout.
`CC1=CC(=O)NP(=O)(Oc2ccc(Cl)cc2)N1` (stereo not drawn): the TGI in the assay on CCRF-CEM leukemia, in the assay on LOX IMVI melanoma, in the assay on NCI-H23 lung, in the assay with NCI-H460 lung, with SF-295 CNS and in the assay on SK-MEL-2 melanoma was above 100 µM throughout. For the same compound, the TGI in the assay with SK-MEL-5 melanoma, in the assay on SNB-19 CNS and in the assay on U251 CNS was above 100 µM throughout.
In the case of `Cc1cccc(NC(=O)c2c(N)[n+]([O-])c3ccccc3[n+]2[O-])c1`, the TGI in the assay on CCRF-CEM leukemia is above 100 µM; in the assay on NCI-H23 lung, 23.4 µM; in the assay with NCI-H460 lung it was 28.1 µM; in the assay on SF-295 CNS it was 23.3 µM; in the assay with SK-MEL-2 melanoma, 23.3 µM; in the assay on SK-MEL-5 melanoma, 17 µM. In addition, the TGI in the assay with SNB-19 CNS came out at 29.3 µM; in the assay with U251 CNS, 3.65 µM.
Turning to `Nc1nc(N)nc(CCCCc2nc(N)nc(N)n2)n1`, the TGI in the assay on CCRF-CEM leukemia, in the assay on LOX IMVI melanoma, in the assay on NCI-H23 lung, in the assay on NCI-H460 lung, with SF-295 CNS and in the assay on SK-MEL-2 melanoma was above 100 µM in each case. Further, the TGI with SK-MEL-5 melanoma, in the assay on SNB-19 CNS and with U251 CNS was above 100 µM each time.
For the compound `O=C1OC(C(O)CO)C(C(O)CO)OC1=O` (stereo not drawn), the TGI with CCRF-CEM leukemia, with HCC-2998 colon, in the assay on NCI-H23 lung, in the assay with NCI-H460 lung, with SF-295 CNS and in the assay with SK-MEL-5 melanoma was above 10 µM throughout. Further, the TGI in the assay with SNB-19 CNS and in the assay on U251 CNS was above 10 µM in each case.
In the case of `C=C1C(=O)OC2CC1C(OC(=O)/C=C/c1ccccc1)C/C(C)=C/CC/C(C)=C/CCC2(C)O` (stereo not drawn), the TGI in the assay with HCC-2998 colon came to 3.12 µM; in the assay with LOX IMVI melanoma, 2.61 µM; in the assay with NCI-H23 lung, 4.91 µM; in the assay on NCI-H460 lung, 2.74 µM; in the assay with SF-295 CNS it was 3.01 µM; with SK-MEL-2 melanoma, 2.85 µM. Further, the results for the TGI in the assay with SK-MEL-5 melanoma, with SNB-19 CNS and in the assay on U251 CNS were 3.68 µM, 3.51 µM and 4.28 µM, respectively.
As to `O=C(O)CCC(O)=C1S(=O)(=O)OCCOS1(=O)=O`, the TGI with HCC-2998 colon, in the assay on LOX IMVI melanoma, with NCI-H23 lung, in the assay on NCI-H460 lung, in the assay with SF-295 CNS and in the assay with SK-MEL-2 melanoma was above 100 µM each time. Besides, the TGI in the assay with SK-MEL-5 melanoma, with SNB-19 CNS and in the assay with U251 CNS was above 100 µM each time.
